Patent US11697646B2, “Triazole N-linked carbamoyl cyclohexyl acids as LPA antagonists” (BRISTOL-MYERS SQUIBB COMPANY, priority 2017, dated 2023)

Molecular target: T1, human LPA1 (Homo sapiens, UniProt Q92633)
T1 construct: expressed in transfected cells; host or cells: Chinese hamster ovary (CHO) cells
Assay: LPA1 functional antagonist assay (calcium flux)
Type: cell-based
Conditions: CHO cells overexpressing human LPA1; calcium flux induced by 10 nM LPA; read-out: hLPA1 IC50
Procedure: The effectiveness of compounds of the present invention as LPA1 inhibitors can be determined in an LPA1 functional antagonist assay as follows:
The cells were then equilibrated to room temperature for 30 minutes before the assay. […] IC50 values were determined by fitting data to a 4-parameter logistic equation (GraphPad Prism, San Diego Calif.).

T1 sequence (Q92633 whole entry): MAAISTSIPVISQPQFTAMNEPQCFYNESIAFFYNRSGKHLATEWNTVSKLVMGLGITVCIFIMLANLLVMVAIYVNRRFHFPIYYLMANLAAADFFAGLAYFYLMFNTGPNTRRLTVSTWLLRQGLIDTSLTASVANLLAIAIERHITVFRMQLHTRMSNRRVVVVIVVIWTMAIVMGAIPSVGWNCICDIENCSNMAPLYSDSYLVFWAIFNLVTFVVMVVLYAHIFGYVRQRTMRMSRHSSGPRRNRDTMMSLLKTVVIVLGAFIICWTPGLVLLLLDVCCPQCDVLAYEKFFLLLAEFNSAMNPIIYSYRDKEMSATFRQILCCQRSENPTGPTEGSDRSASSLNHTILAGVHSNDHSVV

| IC50 [nM] | Compound |
| --- | --- |
| 19 | Cc1nc(-c2nnn(C)c2CNC(=O)OCC2CC(C)(C)C2)ccc1O[C@H]1CCC[C@H](C(=O)O)C1 [Example 38, (1S,3S)-3-((6-(5-(((((3,3-dimethylcyclobutyl)methoxy)carbonyl)amino)methyl)-1-methyl-1H-1,2,3-triazol-4-yl)-2-methylpyridin-3-yl)oxy)cyclohexanecarboxylic acid] |
| 788 | CCCOC(=O)NCc1c(-c2ccc(O[C@H]3CCC[C@H](C(=O)O)C3)c(CC)n2)nnn1C [Example 42, (1S,3S)-3-((2-ethyl-6-(1-methyl-5-(((propoxycarbonyl)amino)methyl)-1H-1,2,3-triazol-4-yl)pyridin-3-yl)oxy)cyclohexane-1-carboxylic acid] |
| 8 | CCc1nc(-c2nnn(C)c2CNC(=O)OCc2ccccc2)ccc1O[C@H]1CCC[C@H](C(=O)O)C1 [Example 43, (1S,3S)-3-((6-(5-((((benzyloxy)carbonyl)amino)methyl)-1-methyl-1H-1,2,3-triazol-4-yl)-2-ethylpyridin-3-yl)oxy)cyclohexne-1-carboxylic acid] |
| 37 | CCc1nc(-c2nnn(C)c2CNC(=O)OC2CCCC2)ccc1O[C@H]1CCC[C@H](C(=O)O)C1 [Example 44, (1S,3S)-3-((6-(5-((((cyclopentyloxy)carbonyl)amino)methyl)-1-methyl-1H-1,2,3-triazol-4-yl)-2-ethylpyridin-3-yl)oxy)cyclo-hexane-1-carboxylic acid] |
| 94 | CCc1nc(-c2nnn(C)c2CNC(=O)OCC(C)(C)C)ccc1O[C@H]1CCC[C@H](C(=O)O)C1 [Example 45, (1S,3S)-3-((2-ethyl-6-(1-methyl-5-((((neopentyloxy)carbonyl)amino)methyl)-1H-1,2,3-triazol-4-yl)pyridin-3-yl)oxy)cyclohexane-1-carboxylic acid] |
| 602 | Cc1nc(-c2nnn(C)c2CNC(=O)OCC2(F)CC2)ccc1O[C@H]1CCC[C@H](C(=O)O)C1 [Example 49, (1S,3S)-3-((6-(5-(((((1-fluorocyclopropyl)methoxy)carbonyl)amino)methyl)-1-methyl-1H-1,2,3-triazol-4-yl)-2-methylpyridin-3-yl)oxy)cyclohexane-1-carboxylic acid] |
| 28 | CCCC1(COC(=O)NCc2c(-c3ccc(O[C@H]4CCC[C@H](C(=O)O)C4)cn3)nnn2C)CC1 [Example 50, (1S,3S)-3-((6-(1-methyl-5-(((((1-propylcyclopropyl)methoxy)carbonyl)amino)methyl)-1H-1,2,3-triazol-4-yl)pyridin-3-yl)oxy)cyclohexane-1-carboxylic acid] |
| 62 | CCC1(COC(=O)NCc2c(-c3ccc(O[C@H]4CCC[C@H](C(=O)O)C4)cn3)nnn2C)CC1 [Example 51, (1S,3S)-3-((6-(5-(((((1-ethylcyclopropyl)methoxy)carbonyl)amino)methyl)-1-methyl-1H-1,2,3-triazol-4-yl)pyridin-3-yl)oxy)cyclohexane-1-carboxylic acid] |
| 81 | Cn1nnc(-c2ccc(O[C@H]3CCC[C@H](C(=O)O)C3)cn2)c1CNC(=O)OCC1(C)CC1 [Example 52, (1S,3S)-3-((6-(1-methyl-5-(((((1-methylcyclopropyl)methoxy)carbonyl)amino)methyl)-1H-1,2,3-triazol-4-yl)pyridin-3-yl)oxy)cyclohexane-1-carboxylic acid] |
| 342 | COCCCOC(=O)NCc1c(-c2ccc(O[C@H]3CCC[C@H](C(=O)O)C3)c(C)n2)nnn1C [Example 53, (1S,3S)-3-((6-(5-((((3-methoxypropoxy)carbonyl)amino)methyl)-1-methyl-1H-1,2,3-triazol-4-yl)-2-methylpyridin-3-yl)oxy)cyclohexane-1-carboxylic acid] |
| 58 | CCCC1(COC(=O)NCc2c(-c3ccc(O[C@H]4CCC[C@H](C(=O)O)C4)c(C)n3)nnn2C)CCC1 [Example 54] |
| 411 | Cc1nc(-c2nnn(C)c2CNC(=O)OCCCF)ccc1O[C@H]1CCC[C@H](C(=O)O)C1 [Example 55, (1S,3S)-3-((6-(5-((((3-fluoropropoxy)carbonyl)amino)methyl)-1-methyl-1H-1,2,3-triazol-4-yl)-2-methylpyridin-3-yl)oxy)cyclohexane-1-carboxylic acid] |
| 885 | CCOCCOC(=O)NCc1c(-c2ccc(O[C@H]3CCC[C@H](C(=O)O)C3)c(C)n2)nnn1C [Example 56, (1S,3S)-3-((6-(5-((((2-ethoxyethoxy)carbonyl)amino)methyl)-1-methyl-1H-1,2,3-triazol-4-yl)-2-methyl-pyridin-3-yl)oxy)cyclohexane-1-carboxylic acid] |
| 68 | CCC1(COC(=O)NCc2c(-c3ccc(O[C@H]4CCC[C@H](C(=O)O)C4)c(C)n3)nnn2C)CCC1 [Example 57, (1S,3S)-3-((6-(5-(((((1-ethylcyclobutyl)methoxy)carbonyl)amino)methyl)-1-methyl-1H-1,2,3-triazol-4-yl)-2-methylpyridin-3-yl)oxy)cyclohexane-1-carboxylic acid] |
| 38 | CCC1(COC(=O)NCc2c(-c3ccc(O[C@H]4CCC[C@H](C(=O)O)C4)c(C)n3)nnn2C)CC1 [Example 58, (1S,3S)-3-((6-(5-(((((1-ethylcyclopropyl)methoxy)carbonyl)amino)methyl)-1-methyl-1H-1,2,3-triazol-4-yl)-2-methylpyridin-3-yl)oxy)cyclohexane-1-carboxylic acid] |
| 48 | Cc1nc(-c2nnn(C)c2CNC(=O)OCC2(C)CC2)ccc1O[C@H]1CCC[C@H](C(=O)O)C1 [Example 59, (1S,3S)-3-((2-methyl-6-(1-methyl-5-(((((1-methylcyclopropyl)methoxy)carbonyl)amino)methyl)-1H-1,2,3-triazol-4-yl)pyridin-3-yl)oxy)cyclohexane-1-carboxylic acid] |

| Compound | IC50 [nM] |
| --- | --- |
| CCCCOC(=O)N(C)Cc1c(-c2ccc(O[C@H]3CCC[C@H](C(=O)O)C3)c(C)n2)nnn1C [Example 36, (1S,3S)-3-((6-(5-(((butoxycarbonyl)(methyl)amino)methyl)-1-methyl-1H-1,2,3-triazol-4-yl)-2-methyl-pyridin-3-yl)oxy)cyclohexane carboxylic acid] | 19 |
| Cc1nc(-c2nnn(C)c2CNC(=O)OCCC(C)(C)C)ccc1O[C@H]1CCC[C@H](C(=O)O)C1 [Example 37, (1S,3S)-3-((6-(5-((((3,3-dimethylbutoxy)carbonyl)amino)methyl)-1-methyl-1H-1,2,3-triazol-4-yl)-2-methylpyridin-3-yl)oxy)cyclohexanecarboxylic acid] | 12 |
| CCCCOC(=O)NCc1c(-c2ccc(O[C@H]3CCC[C@H](C(=O)O)C3)c(CC)n2)nnn1C [Example 41, (1S,3S)-3-((6-(5-(((butoxycarbonyl)amino)methyl)-1-methyl-1H-1,2,3-triazol-4-yl)-2-ethylpyridin-3-yl)oxy)cyclohexane-1-carboxylic acid] | 8 |
| CCc1nc(-c2nnn(C)c2CNC(=O)OCC(C)C)ccc1O[C@H]1CCC[C@H](C(=O)O)C1 [Example 46, (1S,3S)-3-((2-ethyl-6-(5-(((isobutoxycarbonyl)amino)methyl)-1-methyl-1H-1,2,3-triazol-4-yl)pyridin-3-yl)oxy)cyclohexane-1-carboxylic acid] | 120 |
